{
  "source": "patent US11572590B2",
  "about": "“Methods for evaluating tumor cell spheroids using 3D microfluidic cell culture device” (Dana-Farber Cancer Institute, Inc., priority 2017, dated 2023)",
  "assay_in_all_cases": "SelectScreen Kinase Profiling, single point inhibition and IC50 for off-target kinases",
  "format_in_all_cases": "biochemical",
  "key": {"off-target kinases [1]": {"molecular_target": "off-target kinases (Homo sapiens, UniProt O00311)", "sequence (O00311 whole entry)": "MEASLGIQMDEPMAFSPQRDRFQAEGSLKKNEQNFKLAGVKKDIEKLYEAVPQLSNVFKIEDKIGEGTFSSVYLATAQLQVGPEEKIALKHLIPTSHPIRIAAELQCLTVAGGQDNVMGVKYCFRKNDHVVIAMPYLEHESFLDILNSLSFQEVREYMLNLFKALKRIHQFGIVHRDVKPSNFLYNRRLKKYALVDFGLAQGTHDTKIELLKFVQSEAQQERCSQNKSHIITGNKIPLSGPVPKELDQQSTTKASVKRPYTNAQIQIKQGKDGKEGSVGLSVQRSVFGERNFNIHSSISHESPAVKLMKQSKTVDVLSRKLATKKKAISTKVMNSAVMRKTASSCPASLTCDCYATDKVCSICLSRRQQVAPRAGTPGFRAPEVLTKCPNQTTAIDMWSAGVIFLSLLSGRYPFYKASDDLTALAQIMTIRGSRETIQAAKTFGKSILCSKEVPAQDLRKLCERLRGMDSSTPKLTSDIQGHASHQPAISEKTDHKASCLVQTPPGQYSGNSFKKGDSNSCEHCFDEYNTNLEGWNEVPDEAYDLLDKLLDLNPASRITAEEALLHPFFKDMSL", "conditions": "CDC7/DBF4, LanthaScreen Binding"}, "off-target kinases [2]": {"molecular_target": "off-target kinases (Homo sapiens, UniProt P10721, N822K)", "sequence (P10721 26-976 N822K)": "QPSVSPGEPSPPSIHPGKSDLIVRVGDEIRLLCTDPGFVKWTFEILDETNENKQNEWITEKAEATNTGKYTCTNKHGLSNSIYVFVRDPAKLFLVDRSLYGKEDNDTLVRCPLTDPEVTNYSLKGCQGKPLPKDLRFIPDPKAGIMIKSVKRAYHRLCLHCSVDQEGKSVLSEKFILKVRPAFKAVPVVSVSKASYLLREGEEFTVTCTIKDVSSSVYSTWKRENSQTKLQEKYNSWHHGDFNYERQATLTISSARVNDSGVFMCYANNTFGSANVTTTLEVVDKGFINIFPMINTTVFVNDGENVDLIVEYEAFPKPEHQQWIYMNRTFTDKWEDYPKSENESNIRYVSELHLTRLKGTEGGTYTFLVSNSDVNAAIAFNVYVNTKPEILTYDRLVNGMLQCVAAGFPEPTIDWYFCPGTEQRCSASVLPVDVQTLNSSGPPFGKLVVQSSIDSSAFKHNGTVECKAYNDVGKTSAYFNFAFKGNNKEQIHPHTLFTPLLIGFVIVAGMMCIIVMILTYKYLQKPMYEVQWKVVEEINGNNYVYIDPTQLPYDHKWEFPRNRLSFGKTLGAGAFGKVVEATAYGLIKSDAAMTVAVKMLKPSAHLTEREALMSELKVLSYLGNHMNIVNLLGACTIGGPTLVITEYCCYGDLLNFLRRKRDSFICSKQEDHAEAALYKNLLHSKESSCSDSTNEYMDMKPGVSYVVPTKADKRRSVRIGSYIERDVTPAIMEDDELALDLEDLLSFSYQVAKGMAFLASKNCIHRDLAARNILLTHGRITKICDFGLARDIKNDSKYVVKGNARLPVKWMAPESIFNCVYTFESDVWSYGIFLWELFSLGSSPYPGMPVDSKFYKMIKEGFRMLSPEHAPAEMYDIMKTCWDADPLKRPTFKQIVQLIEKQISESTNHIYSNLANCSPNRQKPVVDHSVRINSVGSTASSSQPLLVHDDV", "conditions": "KIT N822K, LanthaScreen Binding"}, "off-target kinases [3]": {"molecular_target": "T1, off-target kinases (Homo sapiens, UniProt P15735)", "T1 sequence (P15735 1-406)": "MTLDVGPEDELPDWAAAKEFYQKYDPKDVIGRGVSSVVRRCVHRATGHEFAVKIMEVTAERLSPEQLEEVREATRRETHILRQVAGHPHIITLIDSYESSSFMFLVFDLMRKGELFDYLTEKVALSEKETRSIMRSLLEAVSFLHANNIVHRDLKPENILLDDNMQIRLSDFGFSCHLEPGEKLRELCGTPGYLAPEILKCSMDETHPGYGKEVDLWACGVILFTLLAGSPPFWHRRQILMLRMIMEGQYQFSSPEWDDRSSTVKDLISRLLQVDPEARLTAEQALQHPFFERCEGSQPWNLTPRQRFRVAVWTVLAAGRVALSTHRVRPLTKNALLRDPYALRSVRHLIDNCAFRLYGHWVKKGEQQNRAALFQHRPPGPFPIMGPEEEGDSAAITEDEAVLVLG", "conditions": "PHKG2, ATP Km app, ZLYTE"}, "off-target kinases [4]": {"molecular_target": "T2, off-target kinases (Homo sapiens, UniProt P35626)", "T2 sequence (P35626 1-688)": "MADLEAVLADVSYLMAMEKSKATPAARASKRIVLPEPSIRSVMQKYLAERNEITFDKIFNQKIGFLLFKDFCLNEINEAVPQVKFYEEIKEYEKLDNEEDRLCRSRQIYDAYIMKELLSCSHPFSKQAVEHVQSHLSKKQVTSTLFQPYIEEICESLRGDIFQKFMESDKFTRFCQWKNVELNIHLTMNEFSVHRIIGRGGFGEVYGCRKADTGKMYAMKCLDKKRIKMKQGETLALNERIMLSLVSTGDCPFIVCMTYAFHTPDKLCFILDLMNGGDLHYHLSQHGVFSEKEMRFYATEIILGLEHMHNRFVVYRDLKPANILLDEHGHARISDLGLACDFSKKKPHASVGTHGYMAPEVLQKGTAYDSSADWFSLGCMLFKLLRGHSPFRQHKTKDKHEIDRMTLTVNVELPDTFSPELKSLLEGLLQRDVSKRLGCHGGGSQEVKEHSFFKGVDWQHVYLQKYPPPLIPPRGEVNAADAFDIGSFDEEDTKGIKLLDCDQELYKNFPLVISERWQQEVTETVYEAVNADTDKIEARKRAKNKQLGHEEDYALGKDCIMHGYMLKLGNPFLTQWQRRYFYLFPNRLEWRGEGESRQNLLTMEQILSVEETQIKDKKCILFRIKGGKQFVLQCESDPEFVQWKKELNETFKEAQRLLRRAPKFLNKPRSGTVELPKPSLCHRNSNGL", "conditions": "ADRBK2 (GRK3), ZLYTE, ATP Km app"}, "off-target kinases [5]": {"molecular_target": "off-target kinases (Homo sapiens, UniProt Q16620)", "sequence (Q16620 32-822)": "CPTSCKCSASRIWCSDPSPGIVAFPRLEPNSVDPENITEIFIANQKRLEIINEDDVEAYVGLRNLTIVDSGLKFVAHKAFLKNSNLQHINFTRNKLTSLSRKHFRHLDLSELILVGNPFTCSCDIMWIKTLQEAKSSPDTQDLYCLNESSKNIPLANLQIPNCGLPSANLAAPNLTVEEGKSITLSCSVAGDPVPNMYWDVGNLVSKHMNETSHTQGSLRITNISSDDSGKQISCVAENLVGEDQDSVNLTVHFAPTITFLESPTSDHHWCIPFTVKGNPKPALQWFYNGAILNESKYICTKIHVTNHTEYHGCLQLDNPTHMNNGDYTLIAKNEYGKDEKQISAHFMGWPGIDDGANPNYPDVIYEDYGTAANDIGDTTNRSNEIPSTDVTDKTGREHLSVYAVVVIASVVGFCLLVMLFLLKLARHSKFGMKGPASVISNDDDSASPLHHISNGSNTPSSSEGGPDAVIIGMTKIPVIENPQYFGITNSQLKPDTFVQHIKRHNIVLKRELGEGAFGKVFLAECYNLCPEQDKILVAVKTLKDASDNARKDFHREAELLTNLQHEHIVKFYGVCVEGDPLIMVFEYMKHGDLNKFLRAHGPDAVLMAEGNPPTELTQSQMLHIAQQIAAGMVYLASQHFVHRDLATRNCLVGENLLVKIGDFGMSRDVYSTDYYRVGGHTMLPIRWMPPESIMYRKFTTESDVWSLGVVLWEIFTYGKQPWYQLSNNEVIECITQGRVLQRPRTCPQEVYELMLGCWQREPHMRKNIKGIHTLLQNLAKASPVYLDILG", "conditions": "NTRK2 (TRKB), ZLYTE, ATP Km app"}, "off-target kinases [6]": {"molecular_target": "off-target kinases (Homo sapiens, UniProt Q7KZI7)", "sequence (Q7KZI7 whole entry)": "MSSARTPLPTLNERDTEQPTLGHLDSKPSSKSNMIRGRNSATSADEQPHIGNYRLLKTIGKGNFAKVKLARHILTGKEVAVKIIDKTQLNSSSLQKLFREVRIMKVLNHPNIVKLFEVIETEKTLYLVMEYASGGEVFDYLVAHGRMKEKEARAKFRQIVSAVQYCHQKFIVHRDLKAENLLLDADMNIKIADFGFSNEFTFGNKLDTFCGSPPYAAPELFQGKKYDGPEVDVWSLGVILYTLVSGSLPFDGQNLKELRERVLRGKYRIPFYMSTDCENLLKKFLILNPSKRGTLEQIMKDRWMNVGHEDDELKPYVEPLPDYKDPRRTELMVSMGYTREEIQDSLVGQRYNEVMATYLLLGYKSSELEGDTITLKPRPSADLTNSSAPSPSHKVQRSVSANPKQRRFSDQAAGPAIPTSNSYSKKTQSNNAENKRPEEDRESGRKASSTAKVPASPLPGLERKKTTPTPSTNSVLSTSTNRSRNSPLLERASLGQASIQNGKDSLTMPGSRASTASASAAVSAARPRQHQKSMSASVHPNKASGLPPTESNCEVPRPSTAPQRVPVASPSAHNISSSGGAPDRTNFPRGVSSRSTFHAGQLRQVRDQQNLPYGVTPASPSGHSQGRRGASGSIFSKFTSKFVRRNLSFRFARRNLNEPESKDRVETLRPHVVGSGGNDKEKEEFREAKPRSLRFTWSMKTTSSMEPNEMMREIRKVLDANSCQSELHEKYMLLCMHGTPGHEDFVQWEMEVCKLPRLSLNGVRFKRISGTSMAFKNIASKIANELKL", "conditions": "MARK2, ATP Km app, ZLYTE"}, "off-target kinases [7]": {"molecular_target": "off-target kinases (Homo sapiens, UniProt Q9H4B4)", "sequence (Q9H4B4 whole entry)": "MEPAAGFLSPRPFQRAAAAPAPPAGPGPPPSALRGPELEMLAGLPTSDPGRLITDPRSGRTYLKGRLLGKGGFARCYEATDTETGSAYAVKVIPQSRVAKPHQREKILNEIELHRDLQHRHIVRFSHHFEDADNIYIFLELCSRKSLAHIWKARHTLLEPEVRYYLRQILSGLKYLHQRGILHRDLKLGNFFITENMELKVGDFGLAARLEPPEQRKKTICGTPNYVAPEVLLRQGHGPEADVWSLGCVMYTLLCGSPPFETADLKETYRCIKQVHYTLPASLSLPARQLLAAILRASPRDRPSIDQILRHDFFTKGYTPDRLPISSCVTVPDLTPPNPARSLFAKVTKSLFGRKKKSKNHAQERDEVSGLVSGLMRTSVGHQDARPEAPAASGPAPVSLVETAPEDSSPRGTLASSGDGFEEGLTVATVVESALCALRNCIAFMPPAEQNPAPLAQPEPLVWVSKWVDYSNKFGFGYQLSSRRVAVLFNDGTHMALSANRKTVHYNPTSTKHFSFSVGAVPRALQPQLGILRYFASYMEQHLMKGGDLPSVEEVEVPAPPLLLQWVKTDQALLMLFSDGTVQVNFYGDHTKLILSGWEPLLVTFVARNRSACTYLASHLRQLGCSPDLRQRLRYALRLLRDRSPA", "conditions": "PLK3, ATP Km app, ZLYTE"}},
  "note": "Like-named read-outs stand apart in the source and are kept apart here.",
  "data": [
    {"smiles": "N#Cc1cc(-c2ncnc(Nc3ccc(N4CCN(C5COC5)CC4)cc3)n2)ccc1OC1CCOCC1", "note": "[Compound 1, 5-(4-((4-(4-(oxetan-3-yl)piperazin-1-yl)phenyl)amino)-1,3,5-triazin-2-yl)-2-((tetrahydro-2H-pyran-4-yl)oxy)benzonitrile]", "values": [
      {"measurement": "inhibition", "setting": "off-target kinases [1]; read-out: % Inhibition 1", "result": 100, "unit": "%"},
      {"measurement": "inhibition", "setting": "off-target kinases [1]; read-out: % Inhibition 2", "result": 97, "unit": "%"},
      {"measurement": "inhibition", "setting": "off-target kinases [1]; read-out: % Inhibition Avg", "result": 98, "unit": "%"},
      {"measurement": "inhibition", "setting": "off-target kinases [2]; read-out: % Inhibition 1", "result": 66, "unit": "%"},
      {"measurement": "inhibition", "setting": "off-target kinases [2]; read-out: % Inhibition 2", "result": 67, "unit": "%"},
      {"measurement": "inhibition", "setting": "off-target kinases [2]; read-out: % Inhibition Avg", "result": 66, "unit": "%"},
      {"measurement": "inhibition", "setting": "off-target kinases [3]; read-out: % Inhibition 1", "result": 83, "unit": "%"},
      {"measurement": "inhibition", "setting": "off-target kinases [3]; read-out: % Inhibition 2", "result": 79, "unit": "%"},
      {"measurement": "inhibition", "setting": "off-target kinases [3]; read-out: % Inhibition Avg", "result": 81, "unit": "%"},
      {"measurement": "inhibition", "setting": "off-target kinases [4]; read-out: % Inhibition 1", "result": 6, "unit": "%"},
      {"measurement": "inhibition", "setting": "off-target kinases [4]; read-out: % Inhibition 2", "result": 4, "unit": "%"},
      {"measurement": "inhibition", "setting": "off-target kinases [4]; read-out: % Inhibition Avg", "result": 5, "unit": "%"},
      {"measurement": "inhibition", "setting": "off-target kinases [5]; read-out: % Inhibition 1", "result": 5, "unit": "%"},
      {"measurement": "inhibition", "setting": "off-target kinases [5]; read-out: % Inhibition 2", "result": 7, "unit": "%"},
      {"measurement": "inhibition", "setting": "off-target kinases [5]; read-out: % Inhibition Avg", "result": 6, "unit": "%"},
      {"measurement": "inhibition", "setting": "off-target kinases [6]; read-out: % Inhibition 1", "result": 86, "unit": "%"},
      {"measurement": "inhibition", "setting": "off-target kinases [6]; read-out: % Inhibition 2", "result": 82, "unit": "%"},
      {"measurement": "inhibition", "setting": "off-target kinases [6]; read-out: % Inhibition Avg", "result": 84, "unit": "%"},
      {"measurement": "inhibition", "setting": "off-target kinases [7]; read-out: % Inhibition 1", "result": 80, "unit": "%"},
      {"measurement": "inhibition", "setting": "off-target kinases [7]; read-out: % Inhibition 2", "result": 76, "unit": "%"},
      {"measurement": "inhibition", "setting": "off-target kinases [7]; read-out: % Inhibition Avg", "result": 78, "unit": "%"}
    ]}
  ]
}
